Results on three molecules are retold here after patent publication US10118131B2, “Method for preventing microbial growth on a filtration membrane” (KEMIRA OYJ, priority 2011, dated 2018).

Data set [1] is described as follows: Flux of membrane before and after soaking in biocide in synthetic sea water (flat sheet cell). To be noted: for Initial flux: before soaking. Here is the method:
Flux and salt rejection of fresh membrane were measured before and after soaking. The membrane was placed in a flat sheet cell (Alfa Laval LabM20). The operating conditions were, feed pressure 20 bar (for sea water membrane 55 bar), salt (synthetic sea water prepared according to ASTM standard D1141), temperature 25° C. The flux measurement was done for 3 hours.
Soaking was done by mixing biocide with synthetic sea water. The concentration of the added biocide in the synthetic sea water was for PFA 14 and 84 mg/l as active substance, for peracetic acid (PAA) 7, 18 and 35 mg/l as active substance and sodium hypochlorite 20 mg/l as active substance. PFA was added to the synthetic seawater as an equilibrium solution having PFA content 14 weight-%, PAA was added as an equilibrium solution having PAA content 35 weight-% and sodium hypochlorite having concentration of 15 weight-%.
The soaking time was 24 or 144 hours. Performic acid equilibrium solution was made by mixing in 1:1 weight proportion of a solution that contained 50% hydrogen peroxide with a solution that contained 75 weight-% formic acid, 12 weight-% sulfuric acid and 13 weight-% water. After soaking membranes were placed again to the flat sheet cell and salt rejection and flux were measured at the same conditions as before soaking.

The nature of data set [2]: Laboratory scale continuous filtration experiment, PFA added continuously into feed. As to the method: The impact of PFA on membrane was further studied by a laboratory scale continuous filtration experiment. The type of membrane used in the experiment was brackish water membrane (FilmTec BW30LE).
The continuous filtration has been done in parallel. From a single brackish water tank the water was pumped to two parallel lines with flat sheet cells having similar brackish water membrane. In one line PFA was added continuously into feed and in other line (control) there was no PFA addition. The filtration conditions were as follows: pressure 15 bar, salt (sea salt): 2 g/l, Temperature: 20° C., flow rate: 48 l/h, PFA dosing rate: 6.5 g/h equilibrium solution having PFA active substance concentration 14 weight-% (=19.8 ppm active substance/l of brackish water). Flux and conductivity of permeate and concentrate were monitored and collected over time (for 30 days).

As for `[Na+].[O-]Cl` [Hypochlorite, sodium hypochlorite], the “differences between flux before and after soaking” value in data set [1] (not told) is more than 15%.

For `CC(=O)OO` [Peracetic acid, peracetic acid], the Flux after soaking turned out to be 73 in data set [1] (7 mg/l active substance in synthetic sea water, soaking 144 hour); 53 in data set [1] (18 mg/l active substance in synthetic sea water, soaking 144 hour); 44 in data set [1] (35 mg/l active substance in synthetic sea water, soaking 144 hour). Moreover, the Initial flux is on record as 86 in data set [1] (membrane later soaked at 7 mg/l active substance, 144 hour); 91 in data set [1] (membrane later soaked at 18 mg/l active substance, 144 hour); 86 in data set [1] (membrane later soaked at 35 mg/l active substance, 144 hour).

As to `O=COO` [Performic acid, performic acid], the Flux after soaking in data set [1] (14 mg/l active substance in synthetic sea water, soaking 144 hour) amounted to 84; in data set [1] (84 mg/l active substance in synthetic sea water, soaking 24 hour) it was 95. Also, the Initial flux is on record as 86 in data set [1] (membrane later soaked at 14 mg/l active substance, 144 hour) and 98 in data set [1] (membrane later soaked at 84 mg/l active substance, 24 hour). The “differences between flux before and after soaking” value in data set [1] (soaked membranes of Table 1) is listed as “less than 15%”. Moreover, the Initial permeate flux in data set [2] (19.8 ppm active substance continuously in feed, 15 bar, sea salt 2 g/l, 20° C.) came out at 250 g/h. Besides, the Final permeate flux in data set [2] (19.8 ppm active substance continuously in feed, 30 days, 15 bar, sea salt 2 g/l, 20° C.) turned out to be 250 g/h. Besides, the “changes in flux over test period” value in data set [2] (FIG. 1 B, PFA added continuously, 30 days) is listed as “small”.
